Laboratory results from publication PMC10949195, “Exponential Combination of a and e/g Intracellular Peptide Libraries Identifies a Selective ATF3 Inhibitor” (ACS Chemical Biology, 2024).

Test: Size-exclusion chromatography of peptide alone
Assay type: physicochemical
Settings: Superdex Peptide 10/300 GL, RT; 20 μM total peptide
Protocol: During SEC experiments, monomeric ATF3 (Figure 8, blue line) and ATF3W_aeg (Figure 8, green line) eluted at approximately 20 min. These contrast with the dimeric profile observed for ATF3-ATF3W_aeg (Figure 8, black line), which occurred at approximately 19 min. For all samples, elution profiles were consistent with either a validated monomer or dimer elution pattern.[15]
Figure 8 SEC profiles indicate that ATF3W_aeg binds ATF3. Shown are size exclusion chromatography profiles for interacting peptides. The peak at approx 19 min for the ATF3-ATF3W_aeg mixture (black trace) represents a dimeric sample while ATF3 (blue trace) and ATF3W_aeg (green trace) generate a peak at approx 20 min, indicating the presence of a monomer. These experiments, undertaken at a total peptide concentration of 20 μM, provide additional evidence for selectivity of the ATF3-ATF3W_aeg interaction. Arrows show controls from previous peptides with elution times for a 32 mer Fos monomeric peptide (20 min) and a 37 mer cJun–FosW heterodimer (18.5 min).[15]
Size-exclusion experiments were performed at RT using a Superdex Peptide 10/300 GL column (GE Healthcare Life Sciences) as described previously.[23]

Ac-ELAALEQKAYALKQENAALEKEVAALEQKIAALK-NH2 (N-terminus and C-terminus assumed) [ATF3W_aeg]
SEC elution time, peptide alone: approximately 20 min | oligomeric state in solution by SEC, peptide alone: exclusively as a monomer
